PMC4462581 (PLoS ONE, 2015)

What was measured:
[1] = test system: BoNT/A intoxication of mouse ES-MNs (SNAP-25 cleavage); format: cell-based
[2] = test system: BoNT/E intoxication of human ES-MNs (SNAP-25 cleavage); format: cell-based
BoNT/A LC = BoNT/A LC (Clostridium botulinum, UniProt P0DPI0); assay: biochemical
[3] = test system: BoNT/A intoxication of mouse ES-MNs (SNAP-25 cleavage); format: cell-based; remark: listed apart in the source
[4] = test system: BoNT/A intoxication of human ES-MNs (SNAP-25 cleavage); format: cell-based

BoNT/A LC, sequence (P0DPI0 2-448 limits assumed): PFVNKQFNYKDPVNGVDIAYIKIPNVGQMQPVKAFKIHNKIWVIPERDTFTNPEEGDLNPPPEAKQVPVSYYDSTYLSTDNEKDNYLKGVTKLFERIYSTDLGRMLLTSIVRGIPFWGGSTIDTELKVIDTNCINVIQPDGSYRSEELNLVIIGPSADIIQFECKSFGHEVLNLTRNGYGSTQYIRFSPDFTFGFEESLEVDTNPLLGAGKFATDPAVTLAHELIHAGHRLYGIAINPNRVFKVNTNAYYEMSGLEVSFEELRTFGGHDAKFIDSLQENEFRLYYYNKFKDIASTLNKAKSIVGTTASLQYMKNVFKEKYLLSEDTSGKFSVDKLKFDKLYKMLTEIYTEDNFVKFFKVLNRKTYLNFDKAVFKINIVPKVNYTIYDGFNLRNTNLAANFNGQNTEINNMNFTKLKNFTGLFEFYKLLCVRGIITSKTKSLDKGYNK

| SMILES | Protection against BoNT/A (SNAP-25 cleavage), library screen outcome [1] | Protection of SNAP-25 against BoNT/E, 30 min post-intoxication [2] | Protection of SNAP-25 against BoNT/E, 60 min post-intoxication [2] | IC50 (BoNT/A LC) | Protection of SNAP-25 against BoNT/A, western blot [3] | Antagonism of BoNT/A mediated SNAP-25 cleavage, 60 min post-intoxication [4] | Protection of SNAP-25 against BoNT/A, pre-intoxication, dose dependence [4] |
| --- | --- | --- | --- | --- | --- | --- | --- |
| O=C1C(=O)c2ccccc2-c2ccccc21 [9,10-Phenanthrenequinone] | identified as potential BoNT/A intoxication inhibitors | statistically significant protection | statistically significant protection | > 20 µM | – | – | – |
| CC1(C)C(=O)N=C2C1=C(O)C(=O)c1ccccc12 [BVT 948] | identified as potential BoNT/A intoxication inhibitors | efficacious | – | > 20 µM | – | – | – |
| O=C1C(Cl)=C(NCCN2CCOCC2)C(=O)c2ncccc21 [NSC 663284] | identified as potential BoNT/A intoxication inhibitors | statistically significant protection | statistically significant protection | > 20 µM | – | – | – |
| N=C(N)c1ccc(OCCCCCOc2ccc(C(=N)N)cc2)cc1 [Pentamidine] | identified as potential BoNT/A intoxication inhibitors | not statistically significant | not statistically significant | > 20 µM | qualitatively lower level of SNAP-25 cleavage protection | trended toward, but did not reach, statistical significance | qualitatively lower level of SNAP-25 cleavage protection |
| CO/C1=C\C(C)=C\[C@@H](C)[C@@H](O)[C@@H](C)C/C(C)=C/C=C/[C@H](OC)[C@@H]([C@@H](C)[C@@H](O)[C@H](C)[C@@]2(O)C[C@@H](O)[C@H](C)[C@@H](C(C)C)O2)OC1=O [bafilomycin] | – | – | – | – | – | – | dose-dependent protection |
